Measurements as given in patent publication US10689377B2 (Mirati Therapeutics, Inc., priority 2017, dated 2020).
pIC50: −log10 of the molar value. Where two headings read alike, the source gives them in different places.

Assays:
KRas G12C [1] = biological target: KRas G12C (Homo sapiens, UniProt P01116, C118S/C51S/C80L/G12C); assay: KRas G12C Modification Assay (LCMS detection of covalent adduct); assay type: binding
Experimental: A 10 μL aliquot of each protein solution was then transferred to a 384 well microtiter plate. Initial compound stocks were generated at fifty times their desired final assay concentration in DMSO.
Exemplary compounds of Formula (I) were diluted 25-fold into K-Ras Assay Buffer to a final of two times their final concentration. A 10 μL aliquot of each diluted compound solution was then added to each of the protein solutions in the microtiter plate to initiate reaction. […] At each time point, the reactions were quenched with 20 μL of a 25 mM acetic acid solution. […] Once all reactions were quenched, the plates were heat sealed and the samples were injected into a LC/MS system for data acquisition.
Samples were injected in their liquid phase onto a C-3 reverse phase column to remove assay buffer and prepare the samples for mass spectrometer. The proteins were eluted from the column using an acetonitrile gradient and fed directly into the mass analyzer. Initial raw data analysis took place in Agilent MassHunter software immediately post data acquisition.
Raw data analysis of the intact protein was exclusively a deconvolution of the multiple charge states of each protein in solution using a maximum entropy deconvolution provided in Mass Hunter. To minimize complexity, only the data over limited mass ranges were considered for analysis, with a minimum of one Dalton mass step intervals. The heights of all masses identified during raw data analysis were exported to be further analyzed in Spotfire® data analysis software.
Final data analysis was a multistep process in the Spotfire® data analysis software package. Briefly, each protein mass was calculated as a percent of the total signal of that sample, that percentage was then normalized to the percentage of signal of the protein in the absence of reactive compounds. Those normalized signals were reported as normalized percent of control (POC). […] Key: “A”≤25% POC; “B”>25% POC-≤50% POC; “C”>50% POC and ND=not determined.

KRas G12C [2] = biological target: KRas G12C (Homo sapiens, UniProt P01116, G12C); assay: Cellular inhibition of KRas G12C measured by Phospho-ERK in NCI-H358 cells; assay type: cell-based; details: pERK(Thr202/Tyr204) normalized with GAPDH, NCI-H358 cells, 3 hours
Procedure, shortened: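 NCI-H358 cells were allowed to attach for 8-12 hours, then exposed to compounds for 3 hours at 0.5% DMSO final. After formaldehyde fixation and methanol permeabilization, phospho-ERK (Thr202/Tyr204) was detected by in-cell immunofluorescence and normalized to GAPDH; IC50 came from a 4-parameter fit of percent-of-DMSO values.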

[3] = normalized percent of control, 5 μM concentration for 3 hours

Row | SMILES | POC (KRas G12C [1]; [3]) | pIC50 (KRas G12C [2]; read-out: IC50) | POC (KRas G12C [1]; 5 µM) | pIC50 (KRas G12C [2])
1 | C=CC(=O)N1CCN(c2nc(OC[C@@H]3CCCN3C)nc3c2CCN(c2cc(O)cc4ccccc24)C3)CC1CC#N (stereo partly drawn) [Example 182, 2-[4-[7-(3-hydroxy-1-naphthyl)-2-[[(2S)-1-methylpyrrolidin-2-yl]methoxy]-6,8-dihydro-5H-pyrido[3,4-d]pyrimidin-4-yl]-1-prop-2-enoyl-piperazin-2-yl]acetonitrile] | C (“C”>50% POC) | 6.00 to 10.00 | – | –
2 | C=CC(=O)N1CCN(c2nc(OC[C@H]3CCCN3C)nc3c2CCN(c2cccc4ccccc24)C3)CC1CC#N (stereo partly drawn) [Example 183, 2-[4-[2-[[(2R)-1-methylpyrrolidin-2-yl]methoxy]-7-(1-naphthyl)-6,8-dihydro-5H-pyrido[3,4-d]pyrimidin-4-yl]-1-prop-2-enoyl-piperazin-2-yl]acetonitrile] | C (“C”>50% POC) | 6.00 to 10.00 | – | –
3 | C=CC(=O)N1CCN(c2nc(OCCCN3CCOCC3)nc3c2CCN(c2cc(O)cc4cccnc24)C3)CC1 [Example 205, 1-(4-(7-(6-hydroxyquinolin-8-yl)-2-(3-morpholinopropoxy)-5,6,7,8-tetrahydropyrido[3,4-d]pyrimidin-4-yl)piperazin-1-yl)prop-2-en-1-one] | C (“C”>50% POC) | < 6.00 | – | –
4 | C=CC(=O)N1CCN(c2nc(OCCCN3CC4CC4C3)nc3c2CCN(c2cc(O)cc4ccccc24)C3)CC1 (stereo not shown) [Example 206, 1-(4-(2-(3-(3-azabicyclo[3.1.0]hexan-3-yl)propoxy)-7-(3-hydroxynaphthalen-1-yl)-5,6,7,8-tetrahydropyrido[3,4-d]pyrimidin-4-yl)piperazin-1-yl)prop-2-en-1-one] | C (“C”>50% POC) | 6.00 to 10.00 | – | –
5 | C=CC(=O)N1CCN(c2nc(OCCN3CCC[C@@H](F)C3)nc3c2CCN(c2cc(O)cc4ccccc24)C3)CC1 [Example 207, (R)-1-(4-(2-(2-(3-fluoropiperidin-1-yl)ethoxy)-7-(3-hydroxynaphthalen-1-yl)-5,6,7,8-tetrahydropyrido[3,4-d]pyrimidin-4-yl)piperazin-1-yl)prop-2-en-1-one] | C (“C”>50% POC) | < 6.00 | – | –
6 | C=CC(=O)N1CCN(c2nc(OCCCN3C[C@@H](F)[C@@H](F)C3)nc3c2CCN(c2cc(O)cc4ccccc24)C3)CC1 [Example 208, 1-(4-(2-(3-((3R,4S)-3,4-difluoropyrrolidin-1-yl)propoxy)-7-(3-hydroxynaphthalen-1-yl)-5,6,7,8-tetrahydropyrido[3,4-d]pyrimidin-4-yl)piperazin-1-yl)prop-2-en-1-one] | C (“C”>50% POC) | < 6.00 | – | –
7 | C=CC(=O)N1CCN(c2nc(OC[C@@H]3CCCN3C)nc3c2CCN(c2ccccc2C(F)(F)F)C3)CC1CC#N (stereo partly drawn) [Example 210, 2-(1-acryloyl-4-(2-(((S)-1-methylpyrrolidin-2-yl)methoxy)-7-(2-(trifluoromethyl)phenyl)-5,6,7,8-tetrahydropyrido[3,4-d]pyrimidin-4-yl)piperazin-2-yl)acetonitrile] | C (“C”>50% POC) | 6.00 to 10.00 | – | –
8 | C=CC(=O)N1CCN(c2nc(OC[C@@H]3C[C@@H](F)CN3C)nc3c2CCN(c2cccc4ccccc24)C3)CC1CC#N (stereo partly drawn) [Example 220, 2-(1-acryloyl-4-(2-(((2S,4R)-4-fluoro-1-methylpyrrolidin-2-yl)methoxy)-7-(naphthalen-1-yl)-5,6,7,8-tetrahydropyrido[3,4-d]pyrimidin-4-yl)piperazin-2-yl)acetonitrile] | C (“C”>50% POC) | 6.00 to 10.00 | – | –
9 | C=CC(=O)N1CCN(c2nc(OCCCO)nc3c2CCN(c2cccc4ccccc24)C3)CC1CC#N (stereo not shown) [Example 231, 2-(1-acryloyl-4-(2-(3-hydroxypropoxy)-7-(naphthalen-1-yl)-5,6,7,8-tetrahydropyrido[3,4-d]pyrimidin-4-yl)piperazin-2-yl)acetonitrile] | C (“C”>50% POC) | 6.00 to 10.00 | – | –
10 | C=CC(=O)N1CCN(c2nc(OC[C@@H]3CCCN3C)nc3c2CCN(c2cccc4ccccc24)C3)C[C@@H]1CC#N [Example 234, 2-((S)-1-acryloyl-4-(2-(((S)-1-methylpyrrolidin-2-yl)methoxy)-7-(naphthalen-1-yl)-5,6,7,8-tetrahydropyrido[3,4-d]pyrimidin-4-yl)piperazin-2-yl)acetonitrile] | C (“C”>50% POC) | 6.00 to 10.00 | – | –
11 | CC#CC(=O)N1CCN(c2nc(OC[C@@H]3CCCN3C)nc3c2CCN(c2cccc4ccccc24)C3)CC1CC#N (stereo partly drawn) [Example 242, 2-(1-(but-2-ynoyl)-4-(2-(((S)-1-methylpyrrolidin-2-yl)methoxy)-7-(naphthalen-1-yl)-5,6,7,8-tetrahydropyrido[3,4-d]pyrimidin-4-yl)piperazin-2-yl)acetonitrile] | C (“C”>50% POC) | 6.00 to 10.00 | – | –
12 | C=CC(=O)N1CCN(c2nc(OC[C@@H]3CCCN3C)nc3c2CCN(c2cccc4ccc(C)cc24)C3)CC1CC#N (stereo partly drawn) [Example 245, 2-[4-[7-(7-methyl-1-naphthyl)-2-[[(2S)-1-methylpyrrolidin-2-yl]methoxy]-6,8-dihydro-5H-pyrido[3,4-d]pyrimidin-4-yl]-1-prop-2-enoyl-piperazin-2-yl]acetonitrile] | C (“C”>50% POC) | 6.00 to 10.00 | – | –
13 | C=CC(=O)N1CCN(c2nc(OC[C@@H]3CCCN3C)nc3c2CCN(c2c(C(C)C)ccc4[nH]ncc24)C3)CC1 [Example 248, (S)-1-(4-(7-(5-isopropyl-1H-indazol-4-yl)-2-((1-methylpyrrolidin-2-yl)methoxy)-5,6,7,8-tetrahydropyrido[3,4-d]pyrimidin-4-yl)piperazin-1-yl)prop-2-en-1-one] | – | < 6.00 | C (key: “A”≤25% POC; “B”>25% POC-≤50% POC; “C”>50% POC) | –
14 | C=CC(=O)N1CCN(c2nc(OC[C@@H]3CCCN3C)nc3c2CCN(c2c(F)c(O)cc4ccccc24)C3)CC1 [Example 249, 1-[4-[7-(2-fluoro-3-hydroxy-1-naphthyl)-2-[[(2S)-1-methylpyrrolidin-2-yl]methoxy]-6,8-dihydro-5H-pyrido[3,4-d]pyrimidin-4-yl]piperazin-1-yl]prop-2-en-1-one] | C (“C”>50% POC) | 6.00 to 10.00 | – | –
15 | C=CC(=O)N1CCN(c2nc(OC[C@]3(C)CCCN3C)nc3c2CCN(c2cccc4ccccc24)C3)CC1CC#N (stereo partly drawn) [Example 251, 2-(1-acryloyl-4-(2-(((S)-1,2-dimethylpyrrolidin-2-yl)methoxy)-7-(naphthalen-1-yl)-5,6,7,8-tetrahydropyrido[3,4-d]pyrimidin-4-yl)piperazin-2-yl)acetonitrile] | C (“C”>50% POC) | – | – | 6.00 to 10.00
16 | C=CC(=O)N1CCN(c2nc(OC[C@@H]3CCCN3C(C)C)nc3c2CCN(c2cccc4ccccc24)C3)CC1CC#N (stereo partly drawn) [Example 252, 2-[4-[2-[[(2S)-1-isopropylpyrrolidin-2-yl]methoxy]-7-(1-naphthyl)-6,8-dihydro-5H-pyrido[3,4-d]pyrimidin-4-yl]-1-prop-2-enoyl-piperazin-2-yl]acetonitrile] | C (“C”>50% POC) | 6.00 to 10.00 | – | –
17 | C=CC(=O)N1CCN(c2nc(OC[C@H]3CCCN3C)nc3c2CCN(c2cccc4ccccc24)C3)C[C@@H]1CC#N [Example 267, 2-((S)-1-acryloyl-4-(2-(((R)-1-methylpyrrolidin-2-yl)methoxy)-7-(naphthalen-1-yl)-5,6,7,8-tetrahydropyrido[3,4-d]pyrimidin-4-yl)piperazin-2-yl)acetonitrile] | – | 6.00 to 10.00 | C (key: “A”≤25% POC; “B”>25% POC-≤50% POC; “C”>50% POC) | –
18 | C=CC(=O)N1CCN(c2nc(OC[C@@H]3CCCN3C)nc3c2CCN(c2ncccc2C(F)(F)F)C3)CC1CC#N (stereo partly drawn) [Example 373, 2-(1-acryloyl-4-(2-(((S)-1-methylpyrrolidin-2-yl)methoxy)-7-(3-(trifluoromethyl)pyridin-2-yl)-5,6,7,8-tetrahydropyrido[3,4-d]pyrimidin-4-yl)piperazin-2-yl)acetonitrile] | C (“C”>50% POC) | < 6.00 | – | –
19 | Cc1cccc(N2CCc3c(nc(OC[C@@H]4CCCN4C)nc3N3CCN(C(=O)C4=CCC4)[C@@H](CC#N)C3)C2)c1C [Example 392, 2-((S)-1-(cyclobut-1-ene-1-carbonyl)-4-(7-(2,3-dimethylphenyl)-2-(((S)-1-methylpyrrolidin-2-yl)methoxy)-5,6,7,8-tetrahydropyrido[3,4-d]pyrimidin-4-yl)piperazin-2-yl)acetonitrile] | C (“C”>50% POC) | < 6.00 | – | –
20 | C=CC(=O)N1CCN(c2nc(OC[C@H]3CCN(C)C3)nc3c2CCN(c2cccc4ccccc24)C3)CC1CC#N (stereo partly drawn) [Example 399, 2-(1-acryloyl-4-(2-(((S)-1-methylpyrrolidin-3-yl)methoxy)-7-(naphthalen-1-yl)-5,6,7,8-tetrahydropyrido[3,4-d]pyrimidin-4-yl)piperazin-2-yl)acetonitrile] | C (“C”>50% POC) | 6.00 to 10.00 | – | –
